The source of these data is patent publication US11173162B2, “Bicyclic heterocycles as FGFR4 inhibitors” (Incyte Corporation, priority 2015, dated 2021).

Molecules are shown by their SMILES.

The subject of the assay is FGFR3 enzyme. The assay is described as follows: FGFR Enzymatic Assay (FRET peptide phosphorylation), FGFR3. Format: biochemical. Particulars: IC50 ratio showing FGFR3 selectivity; Table 2A, pre-incubated for 4 hours. Here is the method: The inhibitor potency of the exemplified compounds was measured in an enzyme assay that measures peptide phosphorylation using FRET measurements to detect product formation. Inhibitors were serially diluted in DMSO and a volume of 0.5 μL was transferred to the wells of a 384-well plate.
GraphPad prism3 was used to analyze the data.
Turning to `CCN1C(=O)N(c2c(F)c(OC)cc(OC)c2F)Cc2cnc(-c3ccc(C(C)(C)C#N)nc3)cc21` [Example 26, 2-(5-(3-(2,6-difluoro-3,5-dimethoxyphenyl)-1-ethyl-2-oxo-1,2,3,4-tetrahydropyrido[4,3-d]pyrimidin-7-yl)pyridin-2-yl)-2-methylpropanenitrile], the FGFR1/FGFR3 is reported as greater than 5 and the FGFR4/FGFR3 is given as greater than 5.

Regarding `COc1cc(OC)c(F)c(N2Cc3cnc(-c4cn(C)nc4C)cc3N(C[C@H]3CCOC3)C2=O)c1F` [Example 108, (R)-3-(2,6-difluoro-3,5-dimethoxyphenyl)-7-(1,3-dimethyl-1H-pyrazol-4-yl)-1-((tetrahydrofuran-3-yl)methyl)-3,4-dihydropyrido[4,3-d]pyrimidin-2(1H)-one], the FGFR1/FGFR3 was greater than 3 and the FGFR4/FGFR3 is listed as greater than 3.

Turning to `COc1cc(OC)c(F)c(N2Cc3cnc(-c4ccc(C5(C#N)CCC5)nc4)cc3N(c3cnn(C)c3)C2=O)c1F` [Example 188, 1-{5-[3-(2,6-difluoro-3,5-dimethoxyphenyl)-1-(1-methyl-1H-pyrazol-4-yl)-2-oxo-1,2,3,4-tetrahydropyrido[4,3-d]pyrimidin-7-yl]pyridin-2-yl}cyclobutanecarbonitrile], the FGFR1/FGFR3 is on record as greater than 5 and the FGFR4/FGFR3 was greater than 5.

As to `COc1cc(OC)c(F)c(N2Cc3cnc(-c4cnn(C5CCN(S(C)(=O)=O)C5)c4)cc3C3(CC3)C2=O)c1F` (stereo not drawn) [Example 147, 2′-(2,6-difluoro-3,5-dimethoxyphenyl)-6′-(1-(1-(methylsulfonyl)pyrrolidin-3-yl)-1H-pyrazol-4-yl)-1′H-spiro[cyclopropane-1,4′-[2,7]naphthyridin]-3′(2′H)-one], the FGFR1/FGFR3 is greater than 10 and the FGFR4/FGFR3 is greater than 3.

As for `COc1cc(OC)c(F)c(N2Cc3cnc(-c4cn(C)nc4C)cc3N(C3CCOC3)C2=O)c1F` (stereo not drawn) [Example 33, 3-(2,6-difluoro-3,5-dimethoxyphenyl)-7-(1,3-dimethyl-1H-pyrazol-4-yl)-1-(tetrahydrofuran-3-yl)-3,4-dihydropyrido[4,3-d]pyrimidin-2(1H)-one], the FGFR1/FGFR3 is greater than 5 and the FGFR4/FGFR3 is given as greater than 5.

On to `CCNC(=O)c1ccc(-c2cc3c(cn2)CN(c2c(F)c(OC)cc(OC)c2F)C(=O)N3CC)cn1` [Example 175, 5-(3-(2,6-difluoro-3,5-dimethoxyphenyl)-1-ethyl-2-oxo-1,2,3,4-tetrahydropyrido[4,3-d]pyrimidin-7-yl)-N-ethylpicolinamide], for which the FGFR1/FGFR3 is reported as greater than 10 and the FGFR4/FGFR3 is reported as greater than 5.

Turning to `COc1cc(OC)c(F)c(N2Cc3cnc(-c4cn(C)nc4C)cc3N(Cc3ccc(F)c(F)c3)C2=O)c1F` [Example 73, 3-(2,6-difluoro-3,5-dimethoxyphenyl)-1-(3,4-difluorobenzyl)-7-(1,3-dimethyl-1H-pyrazol-4-yl)-3,4-dihydropyrido[4,3-d]pyrimidin-2(1H)-one], the FGFR1/FGFR3 is greater than 5 and the FGFR4/FGFR3 was greater than 10.

As for `COc1cc(OC)c(F)c(N2Cc3cnc(-c4cn(C)nc4C)cc3N(c3ccc4nc(C)oc4c3)C2=O)c1F` [Example 75, 3-(2,6-difluoro-3,5-dimethoxyphenyl)-7-(1,3-dimethyl-1H-pyrazol-4-yl)-1-(2-methylbenzo[d]oxazol-6-yl)-3,4-dihydropyrido[4,3-d]pyrimidin-2(1H)-one], the FGFR1/FGFR3 is reported as greater than 5 and the FGFR4/FGFR3 is on record as greater than 3.

Take `COc1cc(OC)c(F)c(N2Cc3cnc(-c4cn(CCN5CCOCC5)nc4C)cc3C3(CC3)C2=O)c1F` [Example 52, 2′-(2,6-difluoro-3,5-dimethoxyphenyl)-6′-(3-methyl-1-(2-morpholinoethyl)-1H-pyrazol-4-yl)-1′H-spiro[cyclopropane-1,4′-[2,7]naphthyridin]-3′(2′H)-one]: the FGFR1/FGFR3 is on record as greater than 10 and the FGFR4/FGFR3 is listed as greater than 1.

Take `COc1cc(OC)c(F)c(N2Cc3cnc(-c4cn(C)nc4C)cc3N(c3ccc(-c4nnc(C)o4)cc3)C2=O)c1F` [Example 115, 3-(2,6-difluoro-3,5-dimethoxyphenyl)-7-(1,3-dimethyl-1H-pyrazol-4-yl)-1-(4-(5-methyl-1,3,4-oxadiazol-2-yl)phenyl)-3,4-dihydropyrido[4,3-d]pyrimidin-2(1H)-one]: the FGFR1/FGFR3 is greater than 3 and the FGFR4/FGFR3 is reported as greater than 5.

For `COc1cc(OC)c(F)c(N2Cc3cnc(-c4cn(C)nc4C)cc3N(C3CC3)C2=O)c1F` [Example 83, 1-cyclopropyl-3-(2,6-difluoro-3,5-dimethoxyphenyl)-7-(1,3-dimethyl-1H-pyrazol-4-yl)-3,4-dihydropyrido[4,3-d]pyrimidin-2(1H)-one], the FGFR1/FGFR3 is greater than 5 and the FGFR4/FGFR3 is greater than 5.

For `CCN1C(=O)N(c2c(F)c(OC)cc(OC)c2F)Cc2cnc(-c3ccccc3)cc21` [Example 22, 3-(2,6-difluoro-3,5-dimethoxyphenyl)-1-ethyl-7-phenyl-3,4-dihydropyrido[4,3-d]pyrimidin-2(1H)-one], the FGFR1/FGFR3 is reported as greater than 5.

Regarding `COc1cc(OC)c(F)c(N2Cc3cnc(-c4cn(C)nc4C)cc3N(c3cncnc3)C2=O)c1F` [Example 61, 3-(2,6-difluoro-3,5-dimethoxyphenyl)-7-(1,3-dimethyl-1H-pyrazol-4-yl)-1-(pyrimidin-5-yl)-3,4-dihydropyrido[4,3-d]pyrimidin-2(1H)-one], the FGFR1/FGFR3 was greater than 10 and the FGFR4/FGFR3 is given as greater than 5.

Regarding `COc1cc(OC)c(F)c(N2Cc3cnc(-c4cn(C)nc4C)cc3N(c3ccncn3)C2=O)c1F` [Example 45, 3-(2,6-difluoro-3,5-dimethoxyphenyl)-7-(1,3-dimethyl-1H-pyrazol-4-yl)-1-pyrimidin-4-yl-3,4-dihydropyrido[4,3-d]pyrimidin-2(1H)-one], the FGFR1/FGFR3 is greater than 10 and the FGFR4/FGFR3 is greater than 10.

As to `COc1cc(OC)c(F)c(N2Cc3cnc(-c4cn(C)nc4C)cc3N(c3ccc(F)c(C#N)c3)C2=O)c1F` [Example 66, 5-(3-(2,6-difluoro-3,5-dimethoxyphenyl)-7-(1,3-dimethyl-1H-pyrazol-4-yl)-2-oxo-3,4-dihydropyrido[4,3-d]pyrimidin-1(2H)-yl)-2-fluorobenzonitrile], the FGFR1/FGFR3 is greater than 5 and the FGFR4/FGFR3 was greater than 5.

Take `COc1cc(CN2C(=O)N(c3c(F)c(OC)cc(OC)c3F)Cc3cnc(-c4cn(C)nc4C)cc32)ccn1` [Example 58, 3-(2,6-difluoro-3,5-dimethoxyphenyl)-7-(1,3-dimethyl-1H-pyrazol-4-yl)-1-((2-methoxypyridin-4-yl)methyl)-3,4-dihydropyrido[4,3-d]pyrimidin-2(1H)-one]: the FGFR1/FGFR3 is given as greater than 10 and the FGFR4/FGFR3 is given as greater than 10.

Consider `COc1cc(OC)c(F)c(N2Cc3cnc(-c4ccc(C5(C#N)CCC5)nc4)cc3N(Cc3nnc(C)o3)C2=O)c1F` [Example 187, 1-(5-{3-(2,6-difluoro-3,5-dimethoxyphenyl)-1-[(5-methyl-1,3,4-oxadiazol-2-yl)methyl]-2-oxo-1,2,3,4-tetrahydropyrido[4,3-d]pyrimidin-7-yl}pyridin-2-yl)cyclobutanecarbonitrile], for which the FGFR1/FGFR3 is on record as greater than 10 and the FGFR4/FGFR3 is recorded as greater than 10.

Take `CNC(=O)c1ccc(-c2cc3c(cn2)CN(c2c(F)c(OC)cc(OC)c2F)C(=O)C32CC2)cn1` [Example 18, 5-(2′-(2,6-difluoro-3,5-dimethoxyphenyl)-3′-oxo-2′,3′-dihydro-1′H-spiro[cyclopropane-1,4′-[2,7]naphthyridine]-6′-yl)-N-methylpicolinamide]: the FGFR1/FGFR3 is greater than 5.

`CCN1C(=O)N(c2c(F)c(OC)cc(OC)c2F)Cc2cnc(-c3ccc(C(=O)NC(C)C)nc3)cc21` [Example 178, 5-(3-(2,6-difluoro-3,5-dimethoxyphenyl)-1-ethyl-2-oxo-1,2,3,4-tetrahydropyrido[4,3-d]pyrimidin-7-yl)-N-isopropylpicolinamide]: the FGFR1/FGFR3 is on record as greater than 5 and the FGFR4/FGFR3 is listed as greater than 5.

`CCCn1cc(N2C(=O)N(c3c(F)c(OC)cc(OC)c3F)Cc3cnc(-c4cn(C)nc4C)cc32)cn1` [Example 132, 3-(2,6-difluoro-3,5-dimethoxyphenyl)-7-(1,3-dimethyl-1H-pyrazol-4-yl)-1-(1-propyl-1H-pyrazol-4-yl)-3,4-dihydropyrido[4,3-d]pyrimidin-2(1H)-one]: the FGFR1/FGFR3 is given as greater than 3 and the FGFR4/FGFR3 is greater than 5.

For `COc1cc(OC)c(F)c(N2Cc3cnc(-c4ccc(C#N)nc4)cc3C3(CC3)C2=O)c1F` [Example 20, 5-(2′-(2,6-difluoro-3,5-dimethoxyphenyl)-3′-oxo-2′,3′-dihydro-1′H-spiro[cyclopropane-1,4′-[2,7]naphthyridine]-6′-yl)picolinonitrile], the FGFR1/FGFR3 is listed as greater than 5.

For `COc1cc(OC)c(F)c(N2Cc3cnc(-c4cn(C)nc4C)cc3N(Cc3cc(C)on3)C2=O)c1F` [Example 31, 3-(2,6-difluoro-3,5-dimethoxyphenyl)-7-(1,3-dimethyl-1H-pyrazol-4-yl)-1-((5-methylisoxazol-3-yl)methyl)-3,4-dihydropyrido[4,3-d]pyrimidin-2(1H)-one], the FGFR1/FGFR3 is greater than 5 and the FGFR4/FGFR3 is listed as greater than 10.

Consider `COc1cc(OC)c(F)c(N2Cc3cnc(-c4cnn(CC5CCCS(=O)(=O)N5)c4)cc3C3(CC3)C2=O)c1F` (stereo not drawn) [Example 162, 2′-(2,6-difluoro-3,5-dimethoxyphenyl)-6′-{1-[(1,1-dioxido-1,2-thiazinan-3-yl)methyl]-1H-pyrazol-4-yl}-1′H-spiro[cyclopropane-1,4′-[2,7]naphthyridin]-3′(2′H)-one], for which the FGFR1/FGFR3 is listed as greater than 5 and the FGFR4/FGFR3 is greater than 1.

Turning to `COc1cc(OC)c(F)c(N2Cc3cnc(-c4cn(C)nc4C)cc3N(Cc3nnc(C)o3)C2=O)c1F` [Example 46, 3-(2,6-difluoro-3,5-dimethoxyphenyl)-7-(1,3-dimethyl-1H-pyrazol-4-yl)-1-[(5-methyl-1,3,4-oxadiazol-2-yl)methyl]-3,4-dihydropyrido[4,3-d]pyrimidin-2(1H)-one], the FGFR1/FGFR3 is reported as greater than 10 and the FGFR4/FGFR3 is greater than 10.
